Experimental data taken from patent publication US10532066B2, “Surfactant lipids, compositions thereof, and uses thereof” (National Jewish Health, priority 2007, dated 2020).
“Also recorded” adds a separate entry of the source.

Assays:
MD-2 = biological target: T1, MD-2 (Homo sapiens, UniProt Q9Y6Y9); assay: MD-2 binding to solid phase phospholipids; details: for binding to MD-2: 1.25 nmole lipid per well, MD-2 1 μg/ml
T1 construct: made in house; host or cells: baculovirus-insect cell expression system
T1 sequence (Q9Y6Y9 19-160): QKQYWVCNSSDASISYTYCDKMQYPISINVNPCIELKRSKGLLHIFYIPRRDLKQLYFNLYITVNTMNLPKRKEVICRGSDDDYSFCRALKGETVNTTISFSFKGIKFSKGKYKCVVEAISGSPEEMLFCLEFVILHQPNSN
Protocol: FIG. 16. MD-2 preferentially binds POPG.
The wells were then washed with 20 mM Tris buffer (pH 7.4) containing 0.15 M NaCl and 5 mM CaCl2 or 2 mM EGTA (buffer B), and 1 μg/ml anti-human CD14 IgG or anti-His antibody (50 μl/well) in buffer A was added and incubated overnight at 4° C., followed by the incubation with horseradish peroxidase (HRP)-labeled anti-mouse IgG (1:5000) for 1 h. After washing the wells with buffer B, the peroxidase reaction was finally performed using o-phenylenediamine as a substrate. The binding of CD14 or MD-2 to phospholipids was detected by measuring absorbance at 490 nm.

BALB/c mice = assay: Lung inflammation induced by intratracheally administered LPS; details: LPS 1 μg + phospholipids 30 μg sprayed into trachea, 18 h
Protocol: A mixture of LPS (1 μg) and phospholipids (30 μg) in 20 μl of PBS was sprayed into murine trachea using a MicroSprayer™ aerosolizer. At 18 h after stimulation, lungs were lavaged via the trachea. TNF-α production (A) was determined by ELISA. The number of leukocytes was counted and differential cell counts (B) were determined from at least 300 cells on cytocentrifuged preparations. Mouse KC (C) and MIP-2 (D) secretion were determined using Quantikine kits (R&D System). The data shown are the means±S.E. from six to eight mice.
Human and mouse TNF-α ELISA kits were purchased from BioSource (Camarillo, Calif.). Mouse KC and MIP-2 Quantikine kits were purchased from R&D System. Measurements of these cytokines were according to the manufacturers' protocols.
Female BALB/c mice from 6 to 8 weeks of age were obtained from Jackson Laboratories (Bar Harbor, Me.). Experiments were conducted under a protocol approved by the Institutional Animal Care and Use Committee of the National Jewish Medical and Research Center. Liposomes were formed using a Liposofast™ (Avestin; Ottawa, Canada), which makes unilamellar liposomes of 100 nm of diameter, and then mixed with an aqueous solution containing LPS. The mixture of LPS and phospholipids was sprayed into murine trachea using a MicroSprayer™ aerosolizer (PennCentury, Philadelphia, Pa.) under isoflurene anesthesia. […] After stimulation, lungs were lavaged via the trachea with 1 ml of Hank's balanced salt solution (Invitrogen Corporation, Carlsbad, Calif.). The volume of collected BALF was measured in each sample and the number of leukocytes was counted (Coulter Counter; Coulter Corporation, Hialeah, Fla.). Differential cell counts were determined from at least 300 cells on cytocentrifuged preparations (Cytospin; Shandon Ltd., Runcorn, Cheshire, UK). Slides were stained with modified Wright-Giemsa (Hema; Protocol, Swedesboro, N.J.) and the cell populations differentiated by standard hematologic procedures. Cytokine levels in the BALF or in the supernatants of cultured airway macrophages were measured using ELISA kits.

LBP binding to CD14 = biological target: T2, LBP binding to CD14 (Homo sapiens, UniProt P08571); assay: Phospholipid competition for LBP-CD14 binding; details: LBP 1 μg/ml, liposomes 20 μg/ml
T2 construct: purchased Cell Sciences Inc. (CD14); R&D systems (LBP)
T2 sequence (P08571 20-345 limits assumed): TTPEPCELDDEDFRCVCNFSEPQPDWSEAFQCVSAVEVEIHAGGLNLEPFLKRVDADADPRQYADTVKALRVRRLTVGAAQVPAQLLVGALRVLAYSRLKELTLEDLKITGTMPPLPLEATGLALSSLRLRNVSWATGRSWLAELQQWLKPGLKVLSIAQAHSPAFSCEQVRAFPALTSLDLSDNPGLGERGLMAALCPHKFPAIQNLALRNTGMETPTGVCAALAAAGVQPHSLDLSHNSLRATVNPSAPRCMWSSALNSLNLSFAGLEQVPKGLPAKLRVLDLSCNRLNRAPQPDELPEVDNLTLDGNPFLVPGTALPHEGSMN
Protocol: CD14 (2 μg) or sTLR4 (100 ng) in aliquots of 20 μl of buffer B were pipeted onto a 96-well plate, and the solvent evaporated using a warm air dryer. […] The amount of bound LBP or MD-2 was detected using specific antibodies.

[1] = system: MAPK, IkBα and MKP-1 in differentiated U937 cells; assay: Western blot of LPS induced MAPK and IkBα phosphorylation and MKP-1 expression; type: cell-based, human; details: LPS 10 ng/ml; for LPS-induced MKP-1 expression / LPS-induced phosphorylation of p38, ERK, JNK and IkBα: liposomes 200 μg/ml; for LPS-induced phosphorylation of p38, ERK, JNK and IkBα: 15-60 min
Protocol: FIG. 4. POPG inhibits LPS induced MAPK and IkBα phosphorylation and MKP-1 expression. POPG liposomes (200 μg/ml) were added to monolayer cultures of differentiated U937 cells that received either no treatment or 10 ng/ml LPS. After incubating for the indicated time, cells were lysed using lysis buffer containing detergent, protease inhibitors and phosphatase inhibitors. Aliquots with 15 μg of protein from lysates were separated by SDS-PAGE and transferred onto nitrocellulose membranes. The amount of phosphorylation was detected using phospho-specific antibodies to p38MAPK, p42/p44 ERK, p46-p54 INK and phosphorylated IkBα. To determine equal loading of proteins between samples, the membranes were probed with rabbit polyclonal p46 INK, p42/p44 ERK, p38MAPK and IkBα antibodies. The expression of MKP-1 was detected with a polyclonal MKP-1 antibody.
FIG. 5. Quantification of POPG inhibition of LPS induced signaling. Western blot analysis as described in FIG. 4 was performed three or four times on separate samples and the intensity of phospho-p38, phospho-IkBα, phosphoERK, phospho JNK, phospho IkBα, total IkBα and MKP-1 was calculated using NIH Image J1.34 software.
FIG. 6. Molecular specificity in POPG action. Liposomes composed of POPC, DPPG or POPG were added to monolayer cultures of differentiated U937 cells that received either no treatment or 10 ng/ml LPS, as indicated. After 30 or 60 min cells were lysed and 15 μg of cellular protein from cultures was separated by SDS-PAGE and transferred onto nitrocellulose membranes. Phosphorylated and nonphosphorylated proteins were detected as described in FIG. 4.
FIG. 7. Comparative quantification of lipid dependent antagonism of LPS signaling. Western blot analysis was performed as described in FIG. 6 in three independent experiments. The intensity of the phosphorylated (p38, ERK, JNK and IkBα) and nonphosphorylated (total IkBα and MKP-1) proteins of interest was measured using NIH Image 0.1.34 software. Significance—*p<0.05, ** p<0.01.
Monolayers of unstimulated or stimulated macrophages were lysed on ice with 250 μl of ice-cold lysis buffer [50 mM Tris.HCl, pH 8.0, containing 137 mM NaCl, 10% (vol/vol) glycerol, 1% (vol/vol) Nonidet P-40, 1 mM NaF, 10 μg/ml leupeptin, 10 μg/ml aprotinin, 2 mM Na3VO4, and 1 mM phenylmethylsulfonyl fluoride (29). Insoluble nuclear material was pelleted by centrifugation at 14,000×g for 10 min at 4° C. and the supernatants were collected. 15 μg of protein from lysates was separated by SDS-PAGE and transferred onto nitrocellulose membranes (30). The blots were then washed in Tris-Tween-buffered saline [TTBS, 20 mM Tris-HCl buffer, pH 7.6, containing 137 mM NaCl and 0.05% (vol/vol) Tween 20], blocked with 5% (wt/vol) nonfat dry milk for 1 hour, and probed according to the method described by Towbin et. al. (30) with phospho-specific antibodies to p46-p54 JNK, p42/p44 ERK, and p38MAPK, or IkBα or with a polyclonal MKP-1 or IkBα antibodies in 5% (wt/vol) BSA dissolved in TTBS. With the use of horseradish peroxidase-conjugated secondary anti-rabbit or anti-mouse antibody, bound antibodies were detected by enhanced chemiluminescence (ECL plus, Amersham Biosciences, Piscataway, N.J.). To determine loading of proteins between samples, the membranes were probed with rabbit polyclonal p46 JNK, p42/p44 ERK, and p38MAPK antibodies.

| Compound | binding to MD-2 relative to the POPG value (MD-2; POPG = 100%) [%] | KC secretion in BALF (BALB/c mice) | LPS-induced neutrophil infiltration (BALB/c mice) | MIP-2 secretion in BALF (BALB/c mice) | TNF-α secretion in the lung (BALF) (BALB/c mice) | reduction of the interaction of LBP with CD14 (LBP binding to CD14) | LPS-induced MKP-1 expression [1] | LPS-induced phosphorylation of p38, ERK, JNK and IkBα [1] | binding to MD-2 (MD-2) | LPS-induced reduction (degradation) of steady state IkBα ([1]; POPG 200 μg/ml) |
| --- | --- | --- | --- | --- | --- | --- | --- | --- | --- | --- |
| CCCCCCCCCCCCCC(=O)OCC(COP(=O)(O)OCC(O)CO)OC(=O)CCCCCCCCCCCCC (stereo not shown) [DMPG, dimyristoyl-phosphatidylglycerol] | ~50 | attenuated | modestly attenuated | attenuated | significantly attenuated | – | – | – | – | – |
| CCCCCCCCCCCCCCCC(=O)OC[C@H](COP(=O)([O-])OCC[N+](C)(C)C)OC(=O)CCCCCCCCCCCCCCC [DPPC, dipalmitoyl-phosphatidylcholine, reference compound] | – | – | not | – | unaffected | not exhibited | – | – | – | – |
| CCCCCCCCCCCCCCCC(=O)OCC(COP(=O)(O)OCC(O)CO)OC(=O)CCCCCCCCCCCCCCC (stereo not shown) [DPPG, dipalmitoyl-phosphatidylglycerol, reference compound] | – | – | – | – | – | – | neither POPC nor DPPG exerted a significant effect | neither POPC nor DPPG exerted a significant effect | Neither saturated nor unsaturated PC, nor unsaturated PI, nor DPPG showed any significant binding | – |
| CCCCCCCC/C=C\CCCCCCCC(=O)O[C@H](COC(=O)CCCCCCCCCCCCCCC)COP(=O)(O)OCC(O)CO (stereo partly shown) [POPG, palmitoyl-oleoyl-phosphatidylglycerol] | – | especially POPG attenuated | modestly attenuated | especially POPG attenuated | significantly attenuated | approximately 40% | blocked the synthesis; also recorded: reduced to control levels; also recorded: potently inhibited | reduced; also recorded: eliminated the phosphorylation; also recorded: significantly reduces; also recorded: potently inhibited | strongly bound | abrogated the reduction; also recorded: remained constant |
| phosphatidylinositol [PI] | – | attenuated | modestly attenuated | attenuated | significantly attenuated | not exhibited | reduced | reduced | Neither saturated nor unsaturated PC, nor unsaturated PI, nor DPPG showed any significant binding | – |
